This note sets out measurements from a melting point compilation (Tetko et al.; mined from patent text by program, amines drawn as free bases though some values may be those of a salt).

Broadly, the melting point is the temperature of the solid-liquid transition. Turning to `C=Cc1ccc(C2=CC(=O)NC2=O)cc1`, the melting point is 124 to 127 °C.
Then `COP(=O)(Cc1cccc2cccc(CP(=O)(OC)OC)c12)OC`, with 168 to 170 °C; and `Cc1cccc(NC(=O)NC2N=C(C(C)C)c3cccc(C)c3N(CC(=O)N3CC4CCC(CC4)C3)C2=O)c1` (stereo unspecified), with 190 to 193 °C; and `CCCCCN1C(=O)CN=C(c2ccccc2)c2ccccc21`, with 93 to 95 °C.
`CC1(C)Oc2ccc(C#N)cc2[C@@H](NC(=O)c2cscc2-n2cccc2)[C@@H]1O` registered a melting point of 174 to 175 °C.
Then `CCOC(=O)c1ccccc1N(CC(=O)N(C)c1ccccc1)C(=O)CN1C(=O)c2ccccc2C1=O`, with 202 °C.
Regarding `CC(C)(C(N)=O)C(O)(Cn1cncn1)c1ccc(Cl)cc1Cl` (stereo unspecified), the melting point lay in the range of 162 to 163 °C.
To `O=C(O)/C(=C\c1cc(-c2ccc3c(c2)OCO3)n(-c2cc(Cl)ccc2Cl)n1)c1cccc(Cl)c1` belongs 174 °C.
As for `CCCC12CCC(=O)C=C1c1c(cc(OC)c(Cl)c1Cl)C2Br` (stereo unspecified), the melting point fell in the range of 132 to 134 °C.
Then `Cc1cc(CN(Cc2cccs2)c2sc(-c3ccc(C(F)(F)F)cc3)nc2C)ccc1OC(C)(C)C(=O)O`, with 100 °C.
As to `CNC(=O)CC1CCN(Cc2cnc3cc(NC(=O)c4ccc(-c5ccc(F)cc5)cc4)c(C)cc3c2)CC1`, the melting point worked out at 243 °C.
Then `O=C1N[C@H](C(=O)O)CSCCCCCCCCC1CS` (stereo partly specified), with 165 to 168 °C; and `CCc1[nH]n(C2CCCC2)c2nc(SC)nc(=O)c1-2`, with 200 to 202 °C.
To `C#Cc1cccc(-c2cccc([N+](=O)[O-])c2-c2cc(C#C)ccn2)c1` belongs 130 to 132 °C.
`Cn1ncc2c1-c1cc(Cl)ccc1N(C(=O)C1CC1)C2`: the melting point was 146 to 150 °C.
To `C=CCCCCCCCCC(=O)N[C@H]1CCCNC(=O)C1` belongs 83 to 84 °C; to `COCc1nc2cnc3ccccc3c2n1CC(C)(C)O`, 145 to 148 °C.
Then `CCn1cc(Nc2nc(-c3cccc(N4Cc5cc(C(C)(C)C)ccc5C4=O)c3CO)cn(C)c2=O)cn1`, with 138 to 140 °C; and `CCOc1cccc(C(CO)n2nc(C(=O)O)c3c2-c2ccc(OCc4cncnc4)cc2CC3)c1` (stereo unspecified), with 210 to 212 °C.
Then `Cn1cc(S(C)=O)c(=O)c2sccc21` (stereo unspecified), with 199 °C; and `O=C(N[C@H]1CC[C@H](CCN2CCN(c3nccc4c3OCC4)CC2)CC1)c1ccc2ncccc2c1`, with 212 °C.
`O=C(O)C(=O)CC(=O)c1cccn1Cc1ccc(-c2ccccc2)cc1` registered a melting point of 189 to 191 °C.
To `CSc1nc2c(Cl)cc(Cl)c([N+](=O)[O-])c2s1` belongs 130 to 132 °C; to `C[C@]12CCC(=O)N[C@@H]1CCc1cc(Sc3cccc4ccccc34)ccc12`, 199 to 201 °C; to `CN1CCN(C2CCC(Nc3ncc4ncnc(Nc5ccc(F)c(Cl)c5)c4n3)CC2)CC1` (stereo unspecified), 194 to 196 °C.
To `Cc1cc(C)n2ncc([N+](=O)[O-])c2n1` belongs 156 to 157 °C.
To `CCOC(=O)c1ccc(Nc2nnc(-c3ccc(Oc4ccccc4)cc3)s2)cc1` belongs 206 to 207 °C; to `C=CCOC(=O)NCC(=N)NO`, 91 to 92 °C.
`CCCc1ncc(CC(=O)O)s1` displayed a melting point of 95 °C.
With `CC(C)(C)CC(C)(C)c1cc(Cc2cc(C(C)(C)C)cc(-n3nc4ccccc4n3)c2O)c(O)c(C(C)(C)CC(C)(C)C)c1`, the melting point worked out at 166 °C.
Then `CC(C)(C)c1ccc2c(c1)CCC(CN1CCCCC1)C2=O` (stereo unspecified), with 47 to 49 °C.
To `C=CCOc1cc(-n2c(OCC)nc(C(F)(F)F)cc2=O)c(F)cc1Br` belongs 68 to 70 °C.
To `CCN1c2cc(C)c(C)cc2N(C)C(=O)c2cccnc21` belongs 140 to 144 °C.
With `CC(C)N(CCOc1cccc2nc(Cl)c3ccccc3c12)C(C)C`, the melting point was in the range of 88 to 91 °C.
`COc1c(O)c(C)c2c(c1OC)Nc1ccccc1S2` yielded a melting point of 218 to 220 °C.
To `CC1(C)CC(=O)C(C(=S)Nc2ccc(Cl)c(C(F)(F)F)c2)C(=O)C1` belongs 101 to 102 °C; to `CCc1c(CC(=O)NCCCCCCNC(=O)Cc2ccc(OC)c(OC)c2CC)ccc(OC)c1OC`, 169 to 172 °C.
Then `CCCCCCCCCCCC(=O)OC1C(C)C(c2ccccc2)NC(c2ccccc2)C1C` (stereo unspecified), with 74 to 76 °C.
To `CN1C(=O)CN=C(c2ccccc2F)c2cc(C#N)ccc21` belongs 177 °C; to `Nc1cc(=O)n(Cc2c(Cl)cccc2Cl)[nH]1`, 225 °C; to `Nn1c(=O)c(=O)[nH]c2c(Br)cc(Br)cc21`, 273 to 275 °C.
`Cc1nc(NC(=O)c2ccccc2)sc1C(=O)NCc1cccc(Cl)c1` yielded a melting point of 198 to 199 °C.
As for `COc1ccc(CCN(C)CCCCc2ccc(NC(=O)c3cccc4c(=O)c5ccccc5oc34)cc2)cc1OC`, the melting point is 102 °C.
Then `CCOCc1nc2c(N)nc3cc(-c4ccccc4)cnc3c2n1CCCONC(C)C`, with 142 to 144 °C.
As for `FC(F)(F)c1cccc(-c2cc(C(F)(F)F)n3cnc(-c4ccncc4)c3n2)c1`, the melting point is 258 °C.
To `Cc1nc2c3c(ccn2c1C)C(=O)[C@H](OC(=O)C(C)(C)C)[C@@H](c1ccccc1)N3` belongs 185 to 187 °C; to `O=C1CCC(N2C(=O)c3cccc(OCc4cc5ccccc5o4)c3C2=O)C(=O)N1` (stereo unspecified), 234 to 236 °C; to `Cc1cccc(Nc2cc(Cl)nc(SCC(N)=O)n2)c1C`, 188 to 191 °C.
Then `O=C(O)CCCCCCCCc1nc(-c2ccccc2)c(-c2ccccc2)o1`, with 83 to 85 °C.
To `COc1cccc2c1S(=O)(=O)NC(C1CCCCC1)N2` (stereo unspecified) belongs 221 to 223 °C; to `COc1ccc(-c2coc(-c3ccc(C(=O)O)cc3)n2)cc1`, 286 to 287 °C.
For the molecule `FC(F)(F)c1cccc(N2CCC(N=Cc3cccc4ccccc34)=N2)c1`, the melting point is 173 °C.
For the molecule `COc1cc2c(cc1C)C(=O)CCC2`, the melting point lay within 104 to 107 °C.
Then `N#CCc1cc(F)c(OCc2ccccc2)c(OCc2ccccc2)c1`, with 120 to 121 °C.
Then `O=C(Nc1n[nH]c(-c2ccc(F)cc2)c1-c1ccncc1)C(F)(F)F`, with 260 to 265 °C; and `Cc1ccccc1C=CCN1CCc2nc(N)sc2CC1`, with 112 to 115 °C; and `Cc1nc(O)c(F)c(Cl)n1`, with 214 to 216 °C.
Molecule `COc1ccc(CCNC(=O)C(=O)NCc2ccc([N+](=O)[O-])cc2)cc1OC1CCCC1` came in with a melting point of 148 to 150 °C.
Then `CC(C)(C)OC(=O)[C@H]1CCCN1CC(=O)N1CCC[C@@H]1C(=O)OC(C)(C)C`, with 75 to 76 °C; and `CCCC(CO)N1CC(COc2cccc(Cl)c2)OC1=O` (stereo unspecified), with 79 to 81 °C; and `CN(CCN(CCC12CC3CC(CC(C3)C1)C2)C(=O)NCCCc1ccncc1)C(=O)CC(C)(C)C`, with 101 to 102 °C.
To `Nc1ccc(C2=NC(O)C(=O)Nc3ccc(Cl)cc32)cc1` (stereo unspecified) belongs over 350 °C; to `CCOc1cc2ncc(C#N)c(Nc3ccc4cn[nH]c4c3)c2cc1OCC`, 143 to 145 °C; to `CN1CC[C@@H](c2c(O)cc(O)c3c(=O)cc(-c4ccccc4I)oc23)[C@@H]1CO`, 233 to 235 °C.
Then `CCCc1nn(-c2ccc(C(F)(F)F)cn2)cc1CCCOc1c(CC(=O)O)cccc1C(C)C`, with 102 to 103 °C; and `O=S1(=O)c2cccc3cccc(c23)N1CCCN1CCN(c2ccc(Br)cc2)CC1`, with 149 °C.
As to `COc1cc(C)c(Nc2nnc3n2C(c2ccc(F)cc2)CSC3)cc1OC` (stereo unspecified), the melting point was in the range of 165 to 166 °C.
To `CCn1cc(C(=O)O)c(=O)c2cc(F)c(N3CC4CCCC3CN4C)c(F)c21` (stereo unspecified) belongs over 300 °C; to `O=C1SC(Cc2ccc(OCCc3c[nH]c4ccccc34)cc2)C(=O)N1C(c1ccccc1)(c1ccccc1)c1ccccc1` (stereo unspecified), 81 to 82.5 °C.
Then `COc1ccc(C(=NO)c2ccccc2F)c(Cl)c1Cl`, with 195 to 197 °C.
Then `O=[N+]([O-])c1ccc(OC2(c3ccccc3)CCNCC2)cc1`, with 137 to 138 °C.
In turn, `O=C(OCCOCCOCCO)C(=O)c1ccc(OCCOc2ccc3ccccc3c2)cc1` gave a melting point of 70 to 71 °C.
Then `CCOC(=O)C1CSC(c2cc3cccc(NS(=O)(=O)c4cccs4)c3[nH]2)=N1` (stereo unspecified), with 156 to 157 °C.
To `Cc1cc(C)n(C(=O)CCNS(=O)(=O)c2ccccc2)n1` belongs 113 to 115 °C; to `CCNC(=O)C1CN(C(c2ccccc2)c2ccccc2)C1`, 91 to 93 °C; to `CCCCOC1OC(CO)C(O)C(O)C1(O)N(Cc1cccc(C)c1C)C(=O)N(CCCl)N=O` (stereo unspecified), 90 to 92 °C.
To `Cn1cc(Br)nc(Br)c1=O` belongs 94 to 95 °C.
`NCCN1CCC(c2n[nH]c3cc(F)ccc23)CC1` showed a melting point of 125 to 128 °C.
To `Cc1cc(NC(=O)C(CS)CC(C)C)cc(C(=O)O)c1` (stereo unspecified) belongs 193 to 195 °C; to `CCCCCCCCCCCCc1ccc(S(=O)(=O)Nc2nnc(S(N)(=O)=O)s2)cc1`, 249 to 250 °C.
Then `O=C(Cc1ccc(OCc2ccccc2)cc1)Nc1c(C(=O)O)oc2cc(-c3ccc(Cl)cc3)ccc12`, with 211 to 212 °C; and `Cn1c(-c2ccncc2)n[nH]c1=O`, with 249 to 251 °C; and `COc1cc(Oc2ccc(S(C)(=O)=O)cc2)cc2cc(C3=NCC(CC(N)=O)S3)[nH]c12` (stereo unspecified), with 169 to 170 °C.
To `Cc1oc(-c2ccccc2)nc1COc1ccc(CCn2cc(CCC(=O)O)c(-c3ccccc3)n2)cc1` belongs 85 to 86 °C; to `CN1C(=O)CN(NC(=O)CNC(=O)OCc2ccccc2)C(c2ccccc2)c2cc(Cl)ccc21` (stereo unspecified), 184 to 190 °C.
The molecule `CC(C)C(=O)NC1CCc2c(c3cc(C#N)ccc3n2Cc2ccccc2C(F)(F)F)C1` (stereo unspecified) came in with a melting point of 222 to 225 °C.
